Reference: publication PMC7809625 (Cell Reports, 2021)

Columns and labels:
VGLUT1 [1] = target: T1, VGLUT1 (Rattus norvegicus, UniProt Q62634); test: inhibition of Na+-dependent Pi uptake in COS7-VGLUT1 cells; assay type: cell-based
T1 sequence (Q62634 1-560): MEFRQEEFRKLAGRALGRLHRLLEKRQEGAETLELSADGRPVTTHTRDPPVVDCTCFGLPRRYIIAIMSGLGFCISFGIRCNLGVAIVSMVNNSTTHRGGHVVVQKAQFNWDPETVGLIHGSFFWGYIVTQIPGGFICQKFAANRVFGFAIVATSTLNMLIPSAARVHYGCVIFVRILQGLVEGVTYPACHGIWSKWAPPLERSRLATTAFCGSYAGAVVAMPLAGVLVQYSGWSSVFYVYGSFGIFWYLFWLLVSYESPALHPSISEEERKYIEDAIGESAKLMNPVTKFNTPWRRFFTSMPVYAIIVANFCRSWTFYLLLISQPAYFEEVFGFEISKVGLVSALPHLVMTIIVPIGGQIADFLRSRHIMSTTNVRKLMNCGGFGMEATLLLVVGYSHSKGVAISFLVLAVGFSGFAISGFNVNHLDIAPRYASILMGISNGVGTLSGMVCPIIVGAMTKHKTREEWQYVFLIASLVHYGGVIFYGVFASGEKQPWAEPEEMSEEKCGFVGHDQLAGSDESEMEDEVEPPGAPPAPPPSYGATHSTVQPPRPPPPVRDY

VGLUT1 [2] = target: T1, VGLUT1; test: inhibition of Pi uptake in COS7-VGLUT1 cells at […]; assay type: cell-based

Ki (VGLUT1 [1]) [µM] | SMILES | inhibition of Pi uptake in COS7-VGLUT1 cells at 10 uM (VGLUT1 [2])
1370 | N[C@@H](CCC(=O)O)C(=O)O [glutamate] | –
– | O=C1OC2(c3cc(I)c(O)c(I)c3Oc3c2cc(I)c(O)c3I)c2c(Cl)c(Cl)c(Cl)c(Cl)c21 [RB, Rose bengal] | The absence of additive effect of NB9 and RB emphasizes the specificity of both inhibitors toward VGLUT1.
